According to patent publication US20120258980A1, “Antibacterial Agent for Drug-Resistant Bacteria, Method for Screening for Same, and Use of Same” (priority 2009, published 2012):
Like-named read-outs stand apart in the source and are kept apart here.

Experiments:
[1] = test system: VISA clinical isolates of MRSA (VI-MRSA) and of MSSA (VI-MSSA); experiment: microbe, parasite or virus in culture; format: cell-based, Staphylococcus aureus
Method: (§1) Each of the bacterial strains listed in Table 1-1 was shake-cultured at 37° C. overnight in 4 mL of a medium (Tryptical Soy Broth: TSB, product of Becton Dickinson and Company). FDA209P was used as a control.
(§2) After completion of culturing, the resultant culture was suspended in a cation-adjusted Mueller Hinton Broth (CAMHB, product of Becton Dickinson and Company). Then, the obtained bacterial culture was adjusted in absorbance with the CAMHB so that the absorbance at 578 nm of the bacterial culture was adjusted to 0.3 measured by an absorption spectrometer. In addition, the resultant bacterial culture was 500-fold diluted with the CAMHB.
(§3) Each of the 500-fold diluted, pre-cultured bacterial cultures was added at 50 μL/well to the CAMHB containing the quinolones and the nybomycins at various concentrations (50 μL/well), followed by statically culturing at 37° C. overnight.
(§4) After completion of culturing, the growth of the bacteria was visually determined based on turbidity to measure MIC in each bacterial strain.
Here, the glycopeptides used were VCM and TEIC. The β-lactam used was OXA.

[2] = test system: MRSA, CA-MRSA and MSSA of Staphylococcus aureus; experiment: MIC measurement, Test Example 4 (MRSA, CA-MRSA and MSSA strains); format: cell-based
Method: as §1, §2, §3, §4
Glycopeptides, imipenem, quinolones and nybomycins were studied for antibacterial activity against the bacterial strains listed in Table 2-1; i.e., MRSA, CA-MRSA and MSSA of Staphylococcus aureus.

VRSA clinical isolates = conditions: based on NARSA, cited from earlier work

Measured: MIC

teicoplanin
0.25 µg/mL: [2]; KBSA171, MRSA | [2]; N315, MRSA
1 µg/mL: [1]; BR2, VI-MRSA, Brazil | [2]; ISA12-1, MRSA | [2]; ISA12-2, MRSA | [2]; ISA37-1, MSSA | [2]; ISA62-1, MRSA | [2]; KBSA32, MRSA | [2]; KBSA34, MRSA | [2]; KBSA72, MRSA | [2]; KBSA96, MRSA | [2]; KSA24, MRSA | [2]; KSA31, MRSA | [2]; KSA36, MRSA | [2]; USA300 FPR3757, CA-MRSA
8 µg/mL: [1]; 99/3759-V, VI-MRSA, The United Kingdom | [1]; A7 (JCSC4842), VI-MRSA, Taiwan | [1]; AMC11094, VI-MRSA, Korea | [1]; BR4, VI-MRSA, Brazil | [1]; HIP06297, VI-MRSA, America | [1]; HIP09433, VI-MRSA, America | [1]; HIP12864, VI-MRSA, America | [1]; HIP13057, VI-MRSA, America | [1]; JCSC7193, VI-MRSA, Thailand | [1]; JCSC7195, VI-MRSA, Thailand | [1]; LIM2, VI-MRSA, France | [1]; LY-1999-01, VI-MSSA, Oman | [1]; LY-1999-03, VI-MRSA, Oman | [1]; MI (HIP5827), VI-MRSA, America | [1]; Mu3, VI-MRSA, Japan | [1]; NJ (HIP5836), VI-MRSA, America | [1]; NRS79, VI-MRSA, America | [1]; NRS118, VI-MRSA, America | [1]; SA MER-S6, VI-MSSA, France | VRSA clinical isolates; VRS2, VRSA, Pennsylvania
16 µg/mL: [1]; B7 (JCSC4852), VI-MRSA, Taiwan | [1]; HIP10540, VI-MRSA, America | [1]; Mu50, VI-MRSA, Japan | [1]; P1V44, VI-MSSA, Belgium | [1]; SA MER-S12, VI-MSSA, France | VRSA clinical isolates; VRS3, VRSA, New York
4 µg/mL: [1]; 28160, VI-MRSA, South African Republic | [1]; 98141, VI-MRSA, France | [1]; BR3, VI-MRSA, Brazil | [1]; BR5, VI-MRSA, Brazil | [1]; HIP07930, VI-MRSA, America | [1]; HIP08926, VI-MRSA, America | [1]; HIP09143, VI-MRSA, America | [1]; HIP09313, VI-MRSA, America | [1]; HIP09662, VI-MRSA, America | [1]; HIP09735, VI-MRSA, America | [1]; HIP09737, VI-MSSA, America | [1]; HIP09740, VI-MRSA, America | [1]; HIP10267, VI-MRSA, America | [1]; HIP13036, VI-MRSA, America | [1]; IL (HIP7737), VI-MRSA, America | [1]; JCSC7203, VI-MRSA, Thailand | [1]; NRS76, VI-MSSA, America | [1]; PC, VI-MRSA, America | [2]; ISA56-3, MRSA
128 µg/mL: VRSA clinical isolates; VRS5, VRSA, Michigan
32 µg/mL: [1]; SA MER-S20, VI-MSSA, France | VRSA clinical isolates; VRS4, VRSA, New York
0.5 µg/mL: [2]; ISA49-1, MSSA | [2]; ISA51-1, MSSA | [2]; MW2, CA-MRSA | [2]; NCTC 8325, MSSA
2 µg/mL: [1]; 99/3700-W, VI-MRSA, The United Kingdom | [1]; BR1, VI-MRSA, Brazil | [1]; HIP06854, VI-MRSA, America | [1]; HIP07920, VI-MRSA, America | [1]; NRS126, VI-MRSA, America | [2]; ATCC 29213, MSSA | [2]; COL, MRSA | [2]; ISA35-1, MRSA | [2]; ISA58-1, MRSA | [2]; ISA73-1, MSSA
64 µg/mL: VRSA clinical isolates; VRS1, VRSA, Michigan
0.06 µg/mL: [2]; FDA209P, MSSA
>256 µg/mL: VRSA clinical isolates; VRS6, VRSA, Michigan | VRSA clinical isolates; VRS7, VRSA, Michigan
